Columns and labels:
HGF/MET system = biological target: T1, HGF/MET system (Homo sapiens, UniProt P08581+P14210); experiment: Phospho-MET ELISA; type: cell-based; details: HEK293 cells, 1 ng/mL recombinant HGF, 15 minutes, pMET ELISA
T1 construct: HEK293 cells were prepared by passage into 6-well multi-plates; endogenous in cells; host or cells: HEK293
Method: Compounds were screened for potency towards the HGF/MET system using phospho-MET (pMET) ELISA kits (Cell Signaling). pMET levels were detected in samples having low (1 ng/mL) and high (10 ng/mL) concentrations of HGF.
HEK293 cells were prepared by passage into 6-well multi-plates and grown at 37° C. at 5% CO2 in DMEM+10% FBS until approximately 90% confluent. Cells were then starved for at least 8 hours in serum-free growth media.
Exemplary compounds were prepared in DMEM+0.1% FBS, diluted and added to treatment media with 1 ng/mL recombinant HGF protein (R&D Systems). Cells were incubated in triplicate at 37° C. and 5% CO2 for 15 minutes. Samples were then treated with 180 μL ice-cold RIPA (radioimmunoprecipitation assay) buffer and cells were lysed on ice for 15 minutes. Lysates were cleared by centrifugation at 16,000-g for 15 minutes and the supernatant was retained. Samples were normalized using a BCA assay of lysates to determine protein concentrations across the samples.
Between 50 and 100 μg total protein lysate was loaded into ELISA wells in pMET Sandwich ELISA kit (Cell Signaling Catalog #7227C), ensuring equal protein load in each well. The ELISA was processed according to manufacturer's instructions. After color developed, absorbance was read on an optical plate reader at 450 nm.
Potency measurements were determined using peak efficacy by scaling test compound dose treatments along a scale of 1-10 between 1 ng/mL and 10 ng/mL HGF doses according to the following formula: […]
where y is the normalized data-point, x is the raw data point, A is the mean HGF at 1 ng/mL, and B is the mean HGF at 10 ng/mL.

[1] = Turbidimetric solubility assay; type: physicochemical; details: PBS, 37° C., absorbance 620 nm; for solubility at 2 h: aqueous buffer, kinetic from dmso stock
Method: Aqueous solubility is a critical drug property that helps to predict bioavailability. Generally, compounds with aqueous solubility <100 μg/ml are poor drugs.
To assess a compound's solubility by turbidity, test compounds were first dissolved in organic solvent (DMSO) at a concentration of 10 mM. This compound solution was then diluted in aqueous solvent (PBS) in a dilution series from […] in a 96-well assay plate. Solutions were incubated at 37° C. for 2 hours.
In wells with test compounds over their solubility limit, the compound will precipitate, effectively blocking the passage of light and thus increasing the absorbance signal of UV light at a wavelength of 620 nm. Compounds were considered insoluble at a tested concentration if turbidity raises the absorbance more than 10% above control reads.

HepG2 cells = experiment: Cytotoxicity assay (LDH release); type: cell-based; details: 48 hours, 0.1 to 100 μM
Method: This experiment was designed to obtain a preliminary assessment of cytotoxicity.
HepG2 cells were plated in 96-well cell culture plates and allowed to attach overnight at 37° C., 5% CO2 in EMEM+10% FBS. Treatments were made in complete media (EMEM+10% FBS) and included a dilution series of test compounds from 0.1 to 100 μM. Known cytotoxin cerivastatin was used as a positive assay control and prepared at a final concentration of 0.5 μM.
Growth media was replaced with treatment media (EMEM+10% FBS containing test compound dissolved in DMSO) and cells were incubated with test compounds for 48 hours. At the end of the incubation period, supernatant media from each well was transferred to a new plate and LDH assay working solution was added. LDH assay solution undergoes a colorimetric reaction in proportion to the amount of lactate dehydrogenase (an intracellular protein that was only found in the media in the presence of lysed cells) in the media. Color reaction was quantified by measurement of absorbance at a wavelength of 490 nm.
The signal range of the assay was determined by no manipulation in a negative control treatment and full lysis of all cells in a lysis control sample. Compounds that increase the level of cytotoxicity more than 20% above negative control samples were considered cytotoxic in this assay.

[2] = In vitro stability in rat plasma; type: in vitro ADME; details: 5 μM, 37° C.
Method: (§1) Bioavailability can be estimated by compound stability when exposed to conditions in the body. As an initial assessment of stability properties in a variety of conditions present in animals, exemplary compounds were tested for stability in a battery of simulated body compartments. Compounds were tested for stability in the following solutions: simulated gastric fluid (SGF: 34.2 mM NaCl, pH 1.2), simulated gastric fluid with the digestive enzyme pepsin (SGF+Enzyme: SGF with 3.2 mg/ml pepsin), simulated intestinal fluid with the mixture of enzymes in porcine pancreatin (SIF+Enzyme: 28.7 mM NaH2PO4, 105.7 mM NaCl, pH 6.8, 10 mg/ml pancreatin), rat plasma, and human plasma.
(§2) Test compounds were incubated at a final concentration of 5 μM in the above solutions at 37° C. with samples removed at the following time points: 0, 1, 2, and 4 hours. Reactions were stopped and prepared for quantification by addition of excess quench solution containing an internal standard (acetonitrile, 200 ng/mL bucetin). Test compound and internal standard in each sample was quantified by LC-MS/MS, and after internal normalization to bucetin, test compound concentration was expressed as a percentage of concentration at the 0-hour time point. Stability in the relevant test solution was then determined by the percent remaining at the 4-hour time point.

[3] = In vitro stability in human plasma; type: in vitro ADME; details: 5 μM, 37° C.
Method: as §1, §2

T1 sequence (P08581 308-1390 limits assumed): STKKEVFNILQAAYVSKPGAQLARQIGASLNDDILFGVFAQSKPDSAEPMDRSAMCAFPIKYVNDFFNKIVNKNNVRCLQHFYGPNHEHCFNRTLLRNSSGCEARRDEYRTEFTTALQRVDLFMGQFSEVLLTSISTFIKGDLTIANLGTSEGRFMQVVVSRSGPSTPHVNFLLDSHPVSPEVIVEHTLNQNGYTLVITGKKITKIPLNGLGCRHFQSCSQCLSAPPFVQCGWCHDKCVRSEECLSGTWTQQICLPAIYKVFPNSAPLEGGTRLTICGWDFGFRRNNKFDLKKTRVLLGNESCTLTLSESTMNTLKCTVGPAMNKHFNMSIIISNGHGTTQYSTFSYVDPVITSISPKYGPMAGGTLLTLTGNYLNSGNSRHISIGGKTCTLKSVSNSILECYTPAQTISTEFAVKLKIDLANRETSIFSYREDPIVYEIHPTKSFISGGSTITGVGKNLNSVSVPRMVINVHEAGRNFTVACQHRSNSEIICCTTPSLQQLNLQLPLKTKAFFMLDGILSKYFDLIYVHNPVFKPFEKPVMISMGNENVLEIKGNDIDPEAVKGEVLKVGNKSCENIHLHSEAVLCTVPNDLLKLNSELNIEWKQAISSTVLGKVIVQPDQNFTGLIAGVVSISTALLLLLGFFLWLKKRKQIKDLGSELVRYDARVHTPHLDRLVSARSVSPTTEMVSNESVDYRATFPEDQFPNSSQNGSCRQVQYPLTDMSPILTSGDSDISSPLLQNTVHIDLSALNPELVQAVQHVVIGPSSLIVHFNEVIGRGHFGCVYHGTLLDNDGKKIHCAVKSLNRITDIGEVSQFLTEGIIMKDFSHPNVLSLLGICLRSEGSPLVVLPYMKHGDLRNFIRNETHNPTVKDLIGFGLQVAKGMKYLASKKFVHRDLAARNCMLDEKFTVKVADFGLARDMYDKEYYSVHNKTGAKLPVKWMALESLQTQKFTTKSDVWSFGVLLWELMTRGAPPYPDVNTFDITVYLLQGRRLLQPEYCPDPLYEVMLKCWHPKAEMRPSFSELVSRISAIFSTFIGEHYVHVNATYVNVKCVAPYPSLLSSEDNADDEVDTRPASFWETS
T1 sequence (P14210 32-494 limits assumed): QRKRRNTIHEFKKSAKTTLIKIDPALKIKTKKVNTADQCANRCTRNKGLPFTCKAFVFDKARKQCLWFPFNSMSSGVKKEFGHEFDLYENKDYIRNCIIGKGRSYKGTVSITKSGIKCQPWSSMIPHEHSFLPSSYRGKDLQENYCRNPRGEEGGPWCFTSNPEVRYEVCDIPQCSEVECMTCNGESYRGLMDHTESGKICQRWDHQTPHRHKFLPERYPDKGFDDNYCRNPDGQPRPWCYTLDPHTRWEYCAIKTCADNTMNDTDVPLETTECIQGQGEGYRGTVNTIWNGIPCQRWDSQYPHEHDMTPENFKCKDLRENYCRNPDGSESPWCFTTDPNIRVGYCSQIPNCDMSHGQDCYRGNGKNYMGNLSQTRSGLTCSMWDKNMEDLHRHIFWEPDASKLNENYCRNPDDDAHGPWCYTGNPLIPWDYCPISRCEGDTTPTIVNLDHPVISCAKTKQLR

CCC(C)CN1CC2N(Cc3ccc(C(F)(F)F)cc3)CCC(=O)N2[C@@H](C)C1=O (some centres unmarked) [Compound 5a]
Potency (augmentation of MET phosphorylation) (HGF/MET system): + (+ indicates maximum potency at or above 100 nM)
solubility at 2 h [1]: > 300 µM
Cytotoxicity (HepG2 cells): ++++ (++++ indicates non-toxic at 100 μM)
Rat Plasma (compound remaining after 4 hours) [2]: ++ (++ indicates 40-79% compound remaining after 4 hours)
Human Plasma (compound remaining after 4 hours) [3]: ++ (++ indicates 40-79% compound remaining after 4 hours)

CC1C(=O)N(CC2CCC2)CC2N(C(=O)c3ccc(OC(F)F)cc3)CCC(=O)N12 (centres unmarked) [Compound 14]
solubility at 2 h [1]: > 300 µM
Cytotoxicity (HepG2 cells): ++++ (++++ indicates non-toxic at 100 μM)
Rat Plasma (compound remaining after 4 hours) [2]: +++ (+++ indicates 80-99% compound remaining after 4 hours)
Human Plasma (compound remaining after 4 hours) [3]: +++ (+++ indicates 80-99% compound remaining after 4 hours)

CC1C(=O)N(CCC2CCC2)CC2N(C(=O)c3ccc(C(F)(F)F)cc3)CCC(=O)N12 (centres unmarked) [Compound 20]
Potency (augmentation of MET phosphorylation) (HGF/MET system): + (+ indicates maximum potency at or above 100 nM)
solubility at 2 h [1]: > 300 µM
Cytotoxicity (HepG2 cells): ++++ (++++ indicates non-toxic at 100 μM)
Rat Plasma (compound remaining after 4 hours) [2]: ++ (++ indicates 40-79% compound remaining after 4 hours)
Human Plasma (compound remaining after 4 hours) [3]: +++ (+++ indicates 80-99% compound remaining after 4 hours)

CCC(C)CN1CC2N(C(=O)c3ccc(C(F)(F)F)cc3)CCC(=O)N2[C@@H](C)C1=O (some centres unmarked) [Compound 1a]
Potency (augmentation of MET phosphorylation) (HGF/MET system): ++++ (++++ indicates maximum potency at or above 0.1 nM)
solubility at 2 h [1]: > 300 µM
Cytotoxicity (HepG2 cells): ++++ (++++ indicates non-toxic at 100 μM)
Rat Plasma (compound remaining after 4 hours) [2]: ++ (++ indicates 40-79% compound remaining after 4 hours)
Human Plasma (compound remaining after 4 hours) [3]: ++ (++ indicates 40-79% compound remaining after 4 hours)

CCC(C)CN1CC2N(Cc3ccc(O)nc3)CCC(=O)N2[C@@H](C)C1=O (some centres unmarked) [Compound 7a]
Potency (augmentation of MET phosphorylation) (HGF/MET system): ++ (++ indicates maximum potency at or above 10 nM)
solubility at 2 h [1]: > 300 µM
Cytotoxicity (HepG2 cells): ++++ (++++ indicates non-toxic at 100 μM)

CCC(C)CN1CC2N(C(=O)c3ccc(C(F)(F)F)c(Cl)c3)CCC(=O)N2C(C)C1=O (centres unmarked) [Compound 12, 1-(3-chloro-4-(trifluoromethyl)benzoyl)-6-methyl-8-(2-methylbutyl)hexahydro-4H-pyrazino[1,2-a]pyrimidine-4,7(6H)-dione]
Potency (augmentation of MET phosphorylation) (HGF/MET system): ++ (++ indicates maximum potency at or above 10 nM)
solubility at 2 h [1]: > 300 µM
Cytotoxicity (HepG2 cells): ++++ (++++ indicates non-toxic at 100 μM)
Rat Plasma (compound remaining after 4 hours) [2]: ++++ (++++ indicates 100% compound remaining after 4 hours)
Human Plasma (compound remaining after 4 hours) [3]: +++ (+++ indicates 80-99% compound remaining after 4 hours)

CCCCN1CC2N(C(=O)c3ccc(OC(F)F)cc3)CCC(=O)N2C(C)C1=O (centres unmarked) [Compound 17]
Potency (augmentation of MET phosphorylation) (HGF/MET system): +++ (+++ indicates maximum potency at or above 1 nM)
solubility at 2 h [1]: > 300 µM
Cytotoxicity (HepG2 cells): ++++ (++++ indicates non-toxic at 100 μM)
Rat Plasma (compound remaining after 4 hours) [2]: ++ (++ indicates 40-79% compound remaining after 4 hours)
Human Plasma (compound remaining after 4 hours) [3]: +++ (+++ indicates 80-99% compound remaining after 4 hours)

CC1C(=O)N(CCC2CCCC2)CC2N(C(=O)c3ccc(C(F)(F)F)cc3)CCC(=O)N12 (centres unmarked) [Compound 19]
Potency (augmentation of MET phosphorylation) (HGF/MET system): +++ (+++ indicates maximum potency at or above 1 nM)
solubility at 2 h [1]: > 300 µM
Cytotoxicity (HepG2 cells): ++++ (++++ indicates non-toxic at 100 μM)
Rat Plasma (compound remaining after 4 hours) [2]: +++ (+++ indicates 80-99% compound remaining after 4 hours)
Human Plasma (compound remaining after 4 hours) [3]: +++ (+++ indicates 80-99% compound remaining after 4 hours)

CCC(C)CN1CC2N(Cc3ccc(OC(F)F)cc3)CCC(=O)N2[C@@H](C)C1=O (some centres unmarked) [Compound 6a]
Potency (augmentation of MET phosphorylation) (HGF/MET system): + (+ indicates maximum potency at or above 100 nM)
solubility at 2 h [1]: > 300 µM
Cytotoxicity (HepG2 cells): ++++ (++++ indicates non-toxic at 100 μM)
Rat Plasma (compound remaining after 4 hours) [2]: +++ (+++ indicates 80-99% compound remaining after 4 hours)
Human Plasma (compound remaining after 4 hours) [3]: ++ (++ indicates 40-79% compound remaining after 4 hours)

CCC(C)CN1CC2N(C(=O)c3ccc(O)cc3)CCC(=O)N2[C@@H](C)C1=O (some centres unmarked) [Compound 8a]
Potency (augmentation of MET phosphorylation) (HGF/MET system): + (+ indicates maximum potency at or above 100 nM)
Solubility ([1]; 2 hours): ++++ (++++ indicates solubility at 300 μM)
Cytotoxicity (HepG2 cells): ++++ (++++ indicates non-toxic at 100 μM)
Rat Plasma (compound remaining after 4 hours) [2]: ++++ (++++ indicates 100% compound remaining after 4 hours)
Human Plasma (compound remaining after 4 hours) [3]: ++ (++ indicates 40-79% compound remaining after 4 hours)

C=CCCN1CC2N(C(=O)c3ccc(C(F)(F)F)cc3)CCC(=O)N2C(C)C1=O (centres unmarked) [Compound 22]
Potency (augmentation of MET phosphorylation) (HGF/MET system): +++ (+++ indicates maximum potency at or above 1 nM)
solubility at 2 h [1]: > 300 µM
Cytotoxicity (HepG2 cells): ++++ (++++ indicates non-toxic at 100 μM)
Rat Plasma (compound remaining after 4 hours) [2]: +++ (+++ indicates 80-99% compound remaining after 4 hours)
Human Plasma (compound remaining after 4 hours) [3]: +++ (+++ indicates 80-99% compound remaining after 4 hours)

CCC(C)CN1CC2N(C(=O)c3ccc(OC(F)F)cc3)CCC(=O)N2[C@@H](C)C1=O (some centres unmarked) [Compound 2a]
Potency (augmentation of MET phosphorylation) (HGF/MET system): ++ (++ indicates maximum potency at or above 10 nM)
solubility at 2 h [1]: > 300 µM
Cytotoxicity (HepG2 cells): ++++ (++++ indicates non-toxic at 100 μM)
Rat Plasma (compound remaining after 4 hours) [2]: ++ (++ indicates 40-79% compound remaining after 4 hours)
Human Plasma (compound remaining after 4 hours) [3]: ++ (++ indicates 40-79% compound remaining after 4 hours)

CCC(C)CN1CC2N(C(=O)c3ccc(F)cc3)CCC(=O)N2C(C)C1=O (centres unmarked) [Compound 11, 1-(4-fluorobenzoyl)-6-methyl-8-(2-methylbutyl)hexahydro-4H-pyrazino[1,2-a]pyrimidine-4,7(6H)-dione]
Potency (augmentation of MET phosphorylation) (HGF/MET system): +++ (+++ indicates maximum potency at or above 1 nM)
solubility at 2 h [1]: > 300 µM
Cytotoxicity (HepG2 cells): ++++ (++++ indicates non-toxic at 100 μM)
Rat Plasma (compound remaining after 4 hours) [2]: ++++ (++++ indicates 100% compound remaining after 4 hours)
Human Plasma (compound remaining after 4 hours) [3]: +++ (+++ indicates 80-99% compound remaining after 4 hours)

— patent US20240025903A1, “Bicyclic Compounds and Uses Thereof for the Treatment of Diseases” (Athira Pharma, Inc., priority 2020, published 2024)
